Consider nine molecules from patent publication US6602878B1, “Acylquanidine derivatives, method for preparing same, application as medicines and pharmaceutical compositions containing them” (Aventis Pharma S.A., priority 1998, dated 2003).

human αvβ3 receptor, sequence (P06756 31-889 limits assumed): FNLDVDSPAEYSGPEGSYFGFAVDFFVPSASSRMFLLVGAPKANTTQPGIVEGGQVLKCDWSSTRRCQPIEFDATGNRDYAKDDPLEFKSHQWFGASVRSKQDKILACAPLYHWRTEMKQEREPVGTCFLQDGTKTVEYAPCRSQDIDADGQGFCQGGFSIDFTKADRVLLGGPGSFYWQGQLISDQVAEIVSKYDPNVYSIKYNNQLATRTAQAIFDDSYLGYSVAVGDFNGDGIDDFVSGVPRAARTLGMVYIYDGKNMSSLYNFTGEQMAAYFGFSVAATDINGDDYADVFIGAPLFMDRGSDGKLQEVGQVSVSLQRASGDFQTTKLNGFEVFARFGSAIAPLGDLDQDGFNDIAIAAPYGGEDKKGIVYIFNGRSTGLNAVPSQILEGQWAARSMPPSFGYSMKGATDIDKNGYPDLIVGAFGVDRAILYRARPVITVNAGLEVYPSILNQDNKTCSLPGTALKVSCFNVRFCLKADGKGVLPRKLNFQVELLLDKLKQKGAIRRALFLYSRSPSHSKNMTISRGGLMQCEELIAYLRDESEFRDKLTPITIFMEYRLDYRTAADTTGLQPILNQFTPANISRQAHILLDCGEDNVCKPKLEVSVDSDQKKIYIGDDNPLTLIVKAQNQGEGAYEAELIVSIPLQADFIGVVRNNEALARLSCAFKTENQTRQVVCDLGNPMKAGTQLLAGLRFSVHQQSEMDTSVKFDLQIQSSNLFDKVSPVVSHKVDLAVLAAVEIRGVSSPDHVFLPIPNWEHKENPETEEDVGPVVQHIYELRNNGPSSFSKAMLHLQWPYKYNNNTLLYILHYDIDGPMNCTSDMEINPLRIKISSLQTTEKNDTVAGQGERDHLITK
human αvβ3 receptor, sequence (P06756 891-1048 partner limits assumed): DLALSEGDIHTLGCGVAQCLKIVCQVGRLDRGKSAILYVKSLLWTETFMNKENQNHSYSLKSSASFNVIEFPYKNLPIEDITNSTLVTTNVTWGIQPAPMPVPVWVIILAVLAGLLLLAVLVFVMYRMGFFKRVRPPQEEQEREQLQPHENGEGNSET
human αvβ3 receptor, sequence (P05106 27-788): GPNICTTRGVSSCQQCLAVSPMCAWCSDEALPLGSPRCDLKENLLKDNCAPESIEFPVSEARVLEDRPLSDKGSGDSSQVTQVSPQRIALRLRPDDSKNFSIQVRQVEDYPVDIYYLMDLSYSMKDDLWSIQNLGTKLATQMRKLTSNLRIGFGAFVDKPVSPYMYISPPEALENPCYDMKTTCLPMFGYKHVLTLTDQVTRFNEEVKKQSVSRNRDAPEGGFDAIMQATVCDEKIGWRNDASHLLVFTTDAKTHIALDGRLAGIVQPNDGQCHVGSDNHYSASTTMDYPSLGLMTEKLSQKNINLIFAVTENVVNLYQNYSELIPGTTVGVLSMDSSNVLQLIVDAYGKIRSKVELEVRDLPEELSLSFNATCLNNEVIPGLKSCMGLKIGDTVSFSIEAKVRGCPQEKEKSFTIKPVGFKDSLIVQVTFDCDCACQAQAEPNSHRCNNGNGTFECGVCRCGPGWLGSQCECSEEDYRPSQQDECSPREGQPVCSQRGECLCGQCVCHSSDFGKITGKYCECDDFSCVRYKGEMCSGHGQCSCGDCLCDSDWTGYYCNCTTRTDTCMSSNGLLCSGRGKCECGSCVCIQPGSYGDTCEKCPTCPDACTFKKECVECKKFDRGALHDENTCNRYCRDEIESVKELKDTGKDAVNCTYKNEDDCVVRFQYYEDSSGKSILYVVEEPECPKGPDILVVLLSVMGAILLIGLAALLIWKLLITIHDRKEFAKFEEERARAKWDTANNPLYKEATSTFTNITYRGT

The experiment addresses human αvβ3 receptor (Homo sapiens, UniProt P05106+P06756). The experiment can be described thus: Kistrin/Vitronectin Receptor (αvβ3) ELISA Test. The class given is binding. To be noted: kistrin-coated plates, 3 hours at ambient temperature, OD 450 nm, read-out: K/VnR IC50. Here is the method:
Kistrin/Vitronectin Receptor (αvβ3) ELISA Test
96-well MaxiSorp plates are coated overnight at […] with 100 μl of Kistrin at 1 μg/ml (dilution in coating buffer: 0.05 M (carbonate)/NaOH pH 9.6. The next day, the wells are emptied and the ligands (kistrin) are then fixed (fixation buffers: PBS containing 0.5% BSA (pH=7.4)) for 1 hour at ambient temperature under gentle agitation of 125 rpm. The wells are washed six times (washing buffer: PBS containing 0.05% Tween 20 (pH 7.7) then the following is added per well and in this order:
40 μl of incubation buffer
10 μl of the dilution of the product to be tested (the products are diluted in a 50:50 DMSO/water mixture)
50 μl of human αvβ3 receptor (cf Pytel et al. Methods Enzymol. (1987) 144 (Dilution in incubation buffer, adapted according to the batch of receptor and according to the ligand). The ligand, the αvβ3 receptor and the products to be studied are incubated for 3 hours at ambient temperature with gentle agitation of 125 rpm.
The wells are again washed six times, then incubated for 2 hours at ambient temperature with gentle agitation of 125 rpm, in the presence of 100 μl of anti-receptor antibody coupled to a peroxidase (The 4B12-HRP antibody is diluted in incubation buffer (50 mM TRIS pH 7.4; 0.5% BSA; 0.05% Tween 20; 1 mM MnCl2; 50 μM CaCl2; 50 μM MgCl2; 100 mM NaCl). The dilution is to be adapted according to the batch of receptor.
The wells are then washed six times before measurement of the ligand-receptor bond is carried out using a peroxidase developer kit (TBM Microwell Peroxidase Substrate System Kirkegaard; Ref cat 50-76-00).
This kit contains a flask A of substrate (3,3′,5,5′-tetramethylebenzidine at 0.4 g/l) and a flask B (H2O2 to 0.02% in Citrate/Citric acid). Extemporaneously, one volume of A is mixed with one volume of B, then the reaction mixture is distributed at a rate of 100 μl/wells.
The enzymatic reaction develops between 6 to 10 minutes for Kistrin/αvβ3 then its development is stopped by the addition of 100 μl of 1 M phosphoric acid. The optical density is determined at 450 nm.
Expression of the Results
The following curve is plotted: the bond percentage as a function of the logarithm of each concentration of the tested product.
For each product IC50 is determined according to the following formula:
B0=Maximum bond in the absence of any product
Bmin=Minimum bond in the presence of the highest
(In general: In an ELISA, binding on a coated surface is turned into a signal by an enzyme label.)
As for `N=C(N)NC(=O)CCc1ccc(OCCC(NC(=O)OCc2ccccc2)C(=O)O)cc1` (stereo not drawn) [Example 1, O—[4-[3-[(aminoiminomethyl)amino]-3-oxopropyl]phenyl]-N-[(phenylmethoxy)carbonyl]-homoserine], the IC50 came out at 31 nM.

`O=C(CCc1ccc(OCC[C@H](NC(=O)OCc2ccccc2)C(=O)O)cc1)NC1=NCCCN1` [Example 2, O—[4-[3-oxo-3-[(1,4,5,6-tetrahydro-2-pyrimidinyl)amino]-propyl]phenyl]-N-[(phenylmethoxy)carbonyl]-homoserine]: the IC50 worked out at 7.3 nM.

In the case of `CCOC(=O)C(CCOc1ccc(CCC(=O)NC2=NCCCN2)cc1)NC(=O)OCc1ccccc1` (stereo not drawn) [Example 3, Ethyl O—[4-[3-oxo-3-[(1.4,5,6-tetrahydro-2-pyrimidinyl)amino]-propyl]phenyl]-N [(phenylmethoxy)carbonyl]-homoserinate], the IC50 was 403 nM.

Take `CC(C)OC(=O)C(CCOc1ccc(CCC(=O)NC2=NCCCN2)cc1)NC(=O)OCc1ccccc1` (stereo not drawn) [Example 4, (1-Methyl)ethyl O—[4-[3-oxo-3-[(1.4,5,6-tetrahydro-2-pyrimidinyl)amino]-propyl]phenyl]-N-[(phenylmethoxy)carbonyl]-homoserinate]: the IC50 turned out to be 5000 nM.

Take `O=C(CCc1ccc(OCC[C@H](NC(=O)OCC23CC4CC(CC(C4)C2)C3)C(=O)O)cc1)NC1=NCCCN1` [Example 5, O—[4-[3-oxo-3-[(1.4,5,6-tetrahydro-2-pyrimidinyl)amino]-propyl]phenyl]-N-[[(1-tricyclo[3.3.1.1^3,7]decyl)-methoxy]-carbonyl]-homoserine]: the IC50 came out at 12 nM.

For `Cc1cc(C)c(S(=O)(=O)NC(CCOc2ccc(CCC(=O)NC3=NCCCN3)cc2)C(=O)O)c(C)c1` (stereo not drawn) [Example 6, O—[4-[3-oxo-3-[(1.4,5,6-tetrahydro-2-pyrimidinyl)amino]-propyl)phenyl]-N-[(2.4,6-trimethylphenyl)sulphonyl]-homoserine], the IC50 came to 3.3 nM.

Turning to `O=C(CCc1ccc(OCCC(NS(=O)(=O)c2cccc3ccccc23)C(=O)O)cc1)NC1=NCCCN1` (stereo not drawn) [Example 7, O—[4-[3-oxo-3-[(1.4,5,6-tetrahydro-2-pyrimidinyl)amino]-propyl]phenyl]-N-[(1-naphthalenyl)sulphonyl]-homoserine], the IC50 stood at 2.5 nM.

Consider `O=C(CCc1cccc(OCCC(NC(=O)OCc2ccccc2)C(=O)O)c1)NC1=NCCCN1` (stereo not drawn) [Example 8, O—[3-[3-oxo-3-[(1,4,5,6-tetrahydro-2-pyrimidinyl)amino]-propyl]phenyl]-N-[(phenylmethoxy)carbonyl]-homoserine;], for which the IC50 amounted to 13 nM.

`O=C(CCc1cccc(OCCCC(NC(=O)OCc2ccccc2)C(=O)O)c1)NC1=NCCCN1` (stereo not drawn) [Example 9, 5-[3-[3-oxo-3-[(1.4,5,6-tetrahydro-2-pyrimidinyl)amino]-propyl]phenoxy]-N-[(phenylmethoxy)carbonyl]-norvaline]: the IC50 was found to be 110 nM.
